# Reference: patent US12207672B2, “Compounds that modulate GPR92 receptor activity and pet food products containing the same” (MARS, INCORPORATED, priority 2018, dated 2025)
# Test system: fGPR92 receptor
# Assay: fGPR92 activation in CHO-K1 cells, calcium sensitive fluorescent dye (FLIPR Tetra), agonist mode
# Format: cell-based, cat
# Details: CHO-K1 cells stably expressing fGPR92
# Procedure: The present example describes the activation of the cat GPR92 receptor (fGPR92) by various compounds and compositions in vitro. Samples that can function as GPR92 agonists were identified by in vitro functional characterization. The effectiveness of a sample in activating the fGPR92 receptor was evaluated. Methods: CHO-Kl cells stably expressing fGPR92 were used to screen 118 test samples to identify samples that can activate the fGPR92 receptor. Activation of the fGPR92 receptor was detected by changes in intracellular calcium levels using a calcium sensitive fluorescent dye. Cells without fGPR92 receptor expression (mock cells) were used as a control. A FLIPR® Tetra system was used for data capture. Each sample was first tested for its ability to activate fGPR92 at three different dose levels in both agonist mode and positive allosteric modulator mode. Active samples were further tested at eight different dose levels in both agonist mode and positive allosteric modulator mode. Peptone from Sigma-Aldrich (product number: P5905; CAS number 73049-73-7) was used in this Example. Dose response curves were then generated for each sample. Menthol and cinnamaldehyde were used as negative controls. In the agonist mode (AGO), 14:0 LPA at 10 μM (EC100) was used as a positive control and the assay buffer was used as a negative control. […]
smiles,measurement,value
"CC(C)[C@@H]1CC[C@@H](C)C[C@H]1O [Menthol, L-menthol]",activation of fGPR92 receptor,did not activate fGPR92 receptor
"O=C/C=C/c1ccccc1 [cinnamaldehyde, cinnamic aldehyde]",activation of fGPR92 receptor,did not activate fGPR92 receptor
